Assay results: paper PMC9240354, “Pharmacokinetics, Pharmacodynamics and Antiviral Efficacy of the MEK Inhibitor Zapnometinib in Animal Models and in Humans” (Frontiers in Pharmacology, 2022)

Legend:
[1] = system: influenza A and B viruses; set-up: method as in Laure et al., 2020; settings: in vitro, ref Laure et al., 2020, read-out: EC50 antiviral efficacy; cited from earlier work
MEK = MEK inhibition in PBMCs of treated Syrian hamsters (pERK/ERK, Wes); format: in vivo; settings: hamster PBMCs
Protocol: PBMCs were isolated from the same blood samples (30 µl mouse blood, 50 µl hamster blood, or 1 ml dog blood) used for pharmacokinetic analysis. After plasma separation as described in the section above (Blood sampling and preparation of plasma samples), the remaining red blood cells were lysed by adding 1 volume of red blood cell (RBC) lysis buffer (Thermo Fisher Scientific, Waltham, MA, United States) (300 µl for mice, 500 µl for hamster, and 10 ml for dogs). The samples were incubated for 15 min at RT and centrifuged at 500 x g for 5 min (RT). The supernatant was removed completely, and the pellet was washed twice with PBS. The PBMC cell pellets were store at −80°C until further analysis. PBMCs of 8 ml human blood were isolated using CPT^TM tubes. After a 20-min centrifugation at 1,650 x g at room temperature, the plasma was collected for PK analysis as described in the section above (Blood sampling and preparation of plasma samples). […]
The pharmacodynamic assessment was performed using the Wes™ (Simple Western™) system which uses capillary electrophoresis to separate, identify and quantify proteins of interest. A chemiluminescence signal for each identified protein is detected and the area under the peak is calculated, which is then used for quantification. The 0.1x Sample Buffer, 400 mM dithiothreitol (DTT) solution, 5x Fluorescence Master Mix, and the Biotinylated Ladder (ProteinSimple®, Abingdon, Oxford, United Kingdom) were prepared according to manufacturer’s instructions. […] Then the 5x Fluorescence Master Mix in DTT (ProteinSimple®) was added, and the samples were denatured for 5 min at 95°C, loaded onto the assay plate and analyzed using specific antibodies. […] The anti-rabbit secondary antibody (Cat# DM-001) was also purchased from ProteinSimple® and was ready to use. Data were analyzed with Compass software for simple western (ProteinSimple®). Using the ratio of pERK to ERK of each sample compared to control (pre-dose), the level of ERK phosphorylation was calculated and then converted into the percentage level of MEK inhibition.

## O=C(O)c1ccc(F)c(F)c1Nc1ccc(I)cc1Cl [zapnometinib, 2-(2-Chloro-4-Iodophenylamino)-N-3,4-Difluoro benzoic acid]
[1]
  EC50: 4.2 to 6.4 µM
MEK; 15 mg/kg BID
  MEK inhibition 12 h after the first treatment: 25 ± 15%
MEK; 15 mg/kg BID, 15 mg/kg
  MEK inhibition at 24 h: 43 ± 8%
MEK; 60 mg/kg OD
  MEK inhibition at 24 h: 55 ± 26%
